These results are taken from patent US12582621B2, “Compositions and methods for delivering pharmaceutical agents” (Arizona Board of Regents on Behalf of the University of …, priority 2020, dated 2026).

This experiment concerns radiation-induced oral mucosistis. Description: Fractionated radiation-induced oral mucositis in mice, topical suramin. The note with it: 8 Gy on 5 consecutive days, topical suramin 50 mg/ml solution by intraoral swab twice daily, assessed day 7. The class given is in vivo, C57BL/6J mice. The procedure:
The head and neck region of six-week-old male and female C57BL/6J mice (4-5 mice/group/sex) were exposed to collimated fractionated radiation (8 Gy on 5 consecutive days). Topically applied suramin (50 mg/ml solution) was applied on day 1 of radiation by intraoral swab and twice daily throughout the experimental period. On day 7, all mice were euthanized and tongues were assessed for development and extent of oral mucositis ulceration on the dorsal surface of the tongue using 1% toluidine blue. Epithelial erosion and ulceration were visible as a deep blue color and ulceration area was measured using NIH Image J software. Histopathological grading (0-4 scale) using an established scale was used to assess OM staging and epithelial thinning.

With `Cc1ccc(C(=O)Nc2ccc(S(=O)(=O)O)c3cc(S(=O)(=O)O)cc(S(=O)(=O)O)c23)cc1NC(=O)c1cccc(NC(=O)Nc2cccc(C(=O)Nc3cc(C(=O)Nc4ccc(S(=O)(=O)O)c5cc(S(=O)(=O)O)cc(S(=O)(=O)O)c45)ccc3C)c2)c1` [suramin, Suramin], the “effect on radiation-induced oral mucositis” value is listed as “diminishes radiation-induced oral mucosistis”.
